Measurements from publication PMC9834766, “Low-molecular-weight anti-HIV-1 agents targeting HIV-1 capsid proteins” (RSC Advances, 2023).
Like-named read-outs stand apart in the source and are kept apart here.

How the values were obtained:
[1] = system: HIV; conditions: cited from earlier work
[2] = system: HIV-1 (NL4-3 strain); test: Protection against HIV-1 (NL4-3 strain)-induced cytopathogenicity in MT-4 cells, MTT assay; type: cell-based; conditions: 50% protection from HIV-1 (NL4-3 strain)-induced cytopathogenicity in MT-4 cells
Procedure: (§1) The anti-HIV activity of the synthesized compounds was assessed based on their protection against HIV-1 (NL4-3 strain)-induced cytopathogenicity in MT-4 cells using an MTT assay.[29–33] The cytotoxicity of these compounds was determined based on reduction of the viability of MT-4 cells, as determined by an MTT assay. […] MKN-3 (2) was designed by in silico screening in the same way as MKN-1 (1), and in terms of ligand efficacy MKN-3 (2), with a London dG value of −9.555, has a higher binding affinity than MKN-1 (1), with a London dG value of −9.134, for a CA molecule. The anti-HIV activity of MKN-3 (2) however, is remarkably lower than that of MKN-1 (1). The reason for this might be the poor cell membrane permeability of MKN-3 (2), which therefore could not penetrate the cells. In general, the hydrophobicity of compounds is correlated to their cell membrane permeability. […] We investigated the design of derivatives more hydrophobic than MKN-3 (2). For the design of MKN-3 (2) derivatives, the docking model of MKN-3 (2) and a CA protein was constructed, and a site in the MKN-3 (2) molecule, whose relationship with the interaction with a CA protein is unknown, was sought (Fig. 3). […] Consequently, this amino group was modified by alkylation or amidation, and was converted into a methylene group. Six derivatives (17, 18, 19, TKB063 (25), 26 and 27), with octanoyl, 2-propylpentanoyl, 2-phenylacetyl, i-propyl, n-heptyl or benzyl groups, respectively on the secondary nitrogen atom of the homopiperazine ring of MKN-3 (2), were synthesized. A derivative (29), with a methylene group in place of the secondary amine of the homopiperazine ring, was prepared. […] It was assumed that the anti-HIV activity of these MKN-3 (2) derivatives was increased as a result of their improved hydrophobicity and cell membrane permeability. If the hydrophobicity of such derivatives is higher (log P > 2), the cytotoxicity is higher (CC50 < 10 μM). […] Thus, TKB063 (25) can be seen to have some advantages.
For virus preparation, 293T/17 cells (Invitrogen) maintained in Dulbecco's modified Eagle medium (DMEM) containing 10% FBS, in a T-75 flask were transfected with 10 μg of the pNL4-3 construct by the calcium phosphate method. The supernatant was collected 48 h after transfection, passed through a 0.45 μm filter, and stored at −80 °C as a stock virus.
(§2) The inhibitory activity of test compounds against X4-HIV-1 (NL4-3 strain)-induced cytopathogenicity in MT-4 cells,[83] which are maintained in RPMI-1640 containing 10% FBS, was assessed by an MTT assay. Various concentrations of test compound solutions were added to HIV-1-infected MT-4 cells at multiplicity of infection (MOI) of 0.001, and placed in wells of a 96-well microplate. The test compounds and the reference compounds, e.g. AZT, were diluted by factors of two or five, respectively. After 5 days' incubation at 37 °C in a CO2 incubator, the number of viable cells was determined by the MTT assay. Cytotoxicities of the test compounds were determined based on reduction of the viability of MT-4 cells measured in the MTT assay. A reverse transcriptase inhibitor, AZT, was purchased from Sigma Aldrich and employed as a positive control compound with anti-HIV activity.

[3] = Cytotoxicity: reduction of the viability of MT-4 cells, MTT assay; type: cell-based; conditions: human
Procedure: as §1, §2

[4] = system: MT-4 cells; test: as above; type: cell-based; conditions: Table 3; 50% reduction of the viability of MT-4 cells
Procedure: as §1, §2

[5] = Human immunodeficiency virus 1, NL43, MT4, Table 4
[6] = Table 4, 50% reduction of the viability of MT-4 cells, read-out: CC50
[7] = Human immunodeficiency virus 1, NL43, MT4, Table 2
[8] = Human immunodeficiency virus 1, NL43, MT4, Table 3
[9] = Table 2, 50% reduction of the viability of MT-4 cells, read-out: CC50

C[C@H]1CO[C@@H]2Cn3cc(C(=O)NCc4ccc(F)cc4F)c(=O)c(O)c3C(=O)N12 [Cabotegravir]
IC50/EC50 ([1]; Integrase inhibitor, ref [70]): 0.00025 µM

CCN1CCCN([C@H](CCSC)C(=O)N2CCNCC2c2c[nH]c3ccccc23)CC1 (stereo partly drawn) [TON01 (36)]
EC50 [2, 5]: 20 µM
CC50 at 5 days [3, 6]: > 50 µM

CSCC[C@H](C)OC(=O)[C@@H](N)c1ccccc1-c1c[nH]c2ccccc12 [MKN-1 (1), reference compound]
EC50 [2, 7]: 2.2 µM
EC50 [2, 8]: 2.3 µM
CC50 at 5 days [3, 9]: 15 µM

C=C(C)[C@@H]1CC[C@]2(NCCN3CCS(=O)(=O)CC3)CC[C@]3(C)[C@H](CC[C@@H]4[C@@]5(C)CC=C(C6=CC[C@@](CF)(C(=O)O)CC6)C(C)(C)[C@@H]5CC[C@]43C)[C@@H]12 [GSK3640254]
IC90/EC90 ([1]; Maturation inhibitor, ref [69]): (33 nM)

CCCC(CCC)C(=O)N1CCCN([C@H](CCSC)C(=O)N2CCNCC2c2c[nH]c3ccccc23)CC1 (stereo partly drawn) [Compound 18]
EC50 [2, 7]: > 9.1 µM
CC50 at 5 days [3, 9]: 9.1 µM

Cc1cn([C@H]2C[C@H](N=[N+]=[N-])[C@@H](CO)O2)c(=O)[nH]c1=O [AZT, reference compound]
EC50 ([2]; Table 2): 0.021 µM
EC50 ([2]; Table 3): 0.025 µM
EC50 ([2]; Table 4): 0.04 µM

CSCC[C@H](C(=O)N1CCNCC1c1c[nH]c2ccccc12)N1CCCCCC1 (stereo partly drawn) [Compound 29]
EC50 [2, 7]: 10 µM
CC50 at 5 days [3, 9]: 32 µM

CCCN1CCCN([C@H](CCSC)C(=O)N2CCNCC2c2c[nH]c3ccccc23)CC1 (stereo partly drawn) [TON02 (37)]
EC50 [2, 5]: 8 µM
CC50 at 5 days [3, 6]: > 50 µM

CCC(C)N1CCCN([C@H](CCSC)C(=O)N2CCNCC2c2c[nH]c3ccccc23)CC1 (stereo partly drawn) [TON03 (38)]
EC50 [2, 5]: 6.3 µM
CC50 at 5 days [3, 6]: > 50 µM

COc1cnc(-n2cnc(C)n2)c2c1c(C(=O)C(=O)N1CCN(C(=O)c3ccccc3)CC1)cn2COP(=O)(O)O [Fostemsavir]
IC50/EC50 ([1]; Entry inhibitor, ref [67]): 0.0007 µM

CSCC[C@H](C(=O)N1CCNCC1c1c[nH]c2ccccc12)N1CCCN(C(C)C)CC1 (stereo partly drawn) [TKB063 (25)]
EC50 [2, 7]: 4.5 µM
EC50 [2, 8]: 4.8 µM
EC50 [2, 5]: 9.5 µM
CC50 at 5 days [3, 9]: > 50 µM

CSCC[C@H](C(=O)N1CCNCC1c1c[nH]c2ccccc12)N1CCCN(C(=O)Cc2ccccc2)CC1 (stereo partly drawn) [Compound 19]
EC50 [2, 7]: 15 µM
CC50 at 5 days [3]: 33 µM

CCCCCCCC(=O)N1CCCN([C@H](CCSC)C(=O)N2CCNCC2c2c[nH]c3ccccc23)CC1 (stereo partly drawn) [Compound 17]
EC50 [2, 7]: 6 µM
CC50 at 5 days [3, 9]: 8.8 µM

CSCC[C@H](C(=O)N1CCNCC1c1c[nH]c2ccccc12)N1CCCN(Cc2ccccc2)CC1 (stereo partly drawn) [Compound 27]
EC50 [2, 7]: 2.4 µM
CC50 at 5 days [3, 9]: 9 µM

Ibalizumab: Antibody, CD4 binding inhibitor
IC50/EC50 ([1]; CD4 binding inhibitor, ref [68]): 0.00029 µM

CSCCC(C(=O)N1CCNCC1c1c[nH]c2ccccc12)N1CCCN(C(C)C)CC1 (stereo not drawn) [TKB063A (25A)]
EC50 [2, 8]: 5 µM
CC50 at 5 days ([3]; Table 3, 50% reduction of the viability of MT-4 cells, read-out: CC50): > 50 µM

CC(C)(C#Cc1ccc(-c2ccc(Cl)c3c(NS(C)(=O)=O)nn(CC(F)(F)F)c23)c([C@H](Cc2cc(F)cc(F)c2)NC(=O)Cn2nc(C(F)(F)F)c3c2C(F)(F)[C@@H]2C[C@H]32)n1)S(C)(=O)=O [Lenacapavir]
IC50/EC50 ([1]; Capsid inhibitor, ref [71]): 0.0001 µM

Enfuvirtide (T-20): Peptide, fusion inhibitor
IC50/EC50 ([1]; Fusion inhibitor, ref [66]): 0.003 µM

CSCCC(C(=O)N1CCNCC1c1c[nH]c2ccccc12)N1CCCNCC1 (stereo not drawn) [MKN-3 (2)]
EC50 [2, 7]: 42 µM
EC50 [2, 8]: > 50 µM
CC50 at 5 days [3, 9]: > 50 µM

Maraviroc
IC90/EC90 ([1]; CCR5 antagonist, ref [65]): (1.0 nM)

CCCCCCCN1CCCN([C@H](CCSC)C(=O)N2CCNCC2c2c[nH]c3ccccc23)CC1 (stereo partly drawn) [Compound 26]
EC50 [2, 7]: 2.6 µM
CC50 at 5 days [3, 9]: 4.4 µM

CSCCC(C(=O)N1CCNCC1c1c[nH]c2ccccc12)N1CCCN(C(C)C)CC1 (stereo not drawn) [TKB063B (25B)]
EC50 ([2]; Table 3): 7.4 µM
CC50 [4]: > 50 µM
